US8859581B2, “Azaheterocyclic compounds as kinase inhibitors” (Merck Patent GmbH, priority 2005, dated 2014)

How the values were obtained:
IGF1R = target: T1, IGF1R (Homo sapiens, UniProt P08069); test: Inhibition of IGF-1R (IC50): IGF1-stimulated IGF1R autophosphorylation in human tumour cells, Capture-ELISA or LUMINEX; type: cell-based; settings: human tumour cells expressing IGF1R (for example MCF-7 or Calu-6); 45 min pre-treatment, IGF1 stimulation 5 min; read-out: IC50 (μM), IGF1R
T1 construct: endogenous in cells
T1 sequence (P08069 31-1367): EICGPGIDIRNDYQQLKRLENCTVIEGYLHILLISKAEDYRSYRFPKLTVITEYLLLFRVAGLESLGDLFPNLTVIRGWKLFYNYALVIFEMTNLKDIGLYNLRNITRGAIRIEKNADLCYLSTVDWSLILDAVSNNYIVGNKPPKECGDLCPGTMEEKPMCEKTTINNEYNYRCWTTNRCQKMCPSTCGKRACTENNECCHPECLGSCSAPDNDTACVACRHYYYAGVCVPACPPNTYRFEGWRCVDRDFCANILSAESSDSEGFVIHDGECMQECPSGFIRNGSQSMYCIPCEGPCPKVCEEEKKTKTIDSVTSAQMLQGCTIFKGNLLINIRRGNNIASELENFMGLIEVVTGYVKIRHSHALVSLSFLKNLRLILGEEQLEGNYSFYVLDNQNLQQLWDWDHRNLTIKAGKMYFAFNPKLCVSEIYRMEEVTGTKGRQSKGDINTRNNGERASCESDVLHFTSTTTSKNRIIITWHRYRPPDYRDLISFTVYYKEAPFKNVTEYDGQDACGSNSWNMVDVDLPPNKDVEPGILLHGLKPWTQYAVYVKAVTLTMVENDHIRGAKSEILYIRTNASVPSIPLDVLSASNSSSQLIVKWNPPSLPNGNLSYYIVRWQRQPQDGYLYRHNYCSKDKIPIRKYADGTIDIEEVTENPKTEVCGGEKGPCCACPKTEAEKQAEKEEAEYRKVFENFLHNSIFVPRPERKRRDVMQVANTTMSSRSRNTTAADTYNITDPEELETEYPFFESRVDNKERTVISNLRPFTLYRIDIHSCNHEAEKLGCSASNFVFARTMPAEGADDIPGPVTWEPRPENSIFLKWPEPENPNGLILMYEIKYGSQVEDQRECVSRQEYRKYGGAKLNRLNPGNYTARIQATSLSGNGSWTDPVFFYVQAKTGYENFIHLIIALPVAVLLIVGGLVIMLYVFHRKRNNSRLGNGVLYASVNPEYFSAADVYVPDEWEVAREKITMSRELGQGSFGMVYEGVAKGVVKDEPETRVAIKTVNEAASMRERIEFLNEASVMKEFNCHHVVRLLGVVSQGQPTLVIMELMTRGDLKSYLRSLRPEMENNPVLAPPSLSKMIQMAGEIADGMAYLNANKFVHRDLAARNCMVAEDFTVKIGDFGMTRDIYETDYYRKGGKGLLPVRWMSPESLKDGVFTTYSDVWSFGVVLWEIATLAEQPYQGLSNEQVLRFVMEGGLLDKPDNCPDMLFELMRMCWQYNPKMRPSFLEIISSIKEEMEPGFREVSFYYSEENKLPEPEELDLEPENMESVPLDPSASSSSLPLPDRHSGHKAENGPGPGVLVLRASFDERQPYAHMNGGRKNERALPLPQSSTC
Protocol: Cultivated human tumour cells which express the IGF1 receptor (IGF1R) (for example MCF-7 or Calu-6) are stimulated using human IGF1, the natural ligand of IGF1R. The stimulation induces autophosphorylation of tyrosine residues in the cytoplasmatic IGF1R domain, which triggers signal transduction cascades, which result in apoptosis inhibition and cell proliferation.
The amount of phosphorylated IGF1R is determined by a receptor-specific Capture-ELISA or an analogous LUMINEX assay. The IGF1R from cell lysates is bound to a 96-well ELISA plate or LUMINEX beads (“capturing”) by means of a specific antibody, and the tyrosine phosphorylation is detected using a biotin-labelled anti-phosphotyrosine antibody and a streptavidin peroxidase conjugate by a chemoluminescence method or by means of a fluorescence-labelled anti-phosphotyrosine antibody, In order to determine the activity of kinase inhibitors, cells are pre-treated with increasing concentrations of these compounds for 45 min and subsequently stimulated using IGF1 for 5 min. As internal control, the biological activity of the ligand IGF1 is checked and a concentration series of an IGF1R reference inhibitor measured.

SMILES | IC50 (IGF1R) [µM] | melting point [°C]
NCCCCCn1cc(-c2cccc(OCc3ccccc3)c2)c2c(N)nccc21 [Compound 69] | 5.7 | 75 to 78
COc1cc(-c2cc3c(Nc4cccc(C#N)c4)ccnc3[nH]2)cc(OC)c1OC [Compound 11] | 1.6 | 
C#CCCCCNc1ccnc2[nH]c(-c3ccc(OC)cc3)cc12 [Compound 20] | 9.9 | 
NCCn1cc(-c2cccc(OCc3ccccc3)c2)c2cnccc21 [Compound 72] | 25 | 

Now those with a lower IC50 (IGF1R), led by results:

IC50 (IGF1R) [µM] | melting point [°C] | SMILES
1.2 |  | COc1cc(-c2cc3c(NCCc4cccnc4)ccnc3[nH]2)cc(OC)c1OC [Compound 9]
0.86 | 80 to 81 | COc1cc(-c2cc3c(Nc4cccc(F)c4)ccnc3[nH]2)cc(OC)c1OC [Compound 4]
